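48-hour exposure; five concentrations; linearly interpolated endpoints. Definition used: TGI = concentration required for complete inhibition of growth.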
Columns and labels:
Assay in all cases: NCI-60 cell line screen, 48 h
SNB-75 CNS = tested on: SNB-75 CNS
SK-MEL-5 melanoma = tested on: SK-MEL-5 melanoma
DU-145 prostate = tested on: DU-145 prostate
EKVX NSCLC = tested on: EKVX NSCLC
HOP-92 NSCLC = tested on: HOP-92 NSCLC
OVCAR-3 ovarian = tested on: OVCAR-3 ovarian
UO-31 renal = tested on: UO-31 renal
COLO 205 colon = tested on: COLO 205 colon
NCI-H522 lung = tested on: NCI-H522 lung
HS 578T breast = tested on: HS 578T breast
SK-MEL-28 melanoma = tested on: SK-MEL-28 melanoma
PC-3 prostate = tested on: PC-3 prostate
SK-OV-3 ovarian = tested on: SK-OV-3 ovarian

Row | SMILES | TGI (SNB-75 CNS) | TGI (SK-MEL-5 melanoma) | TGI (DU-145 prostate) | TGI (EKVX NSCLC) | TGI (HOP-92 NSCLC) | TGI (OVCAR-3 ovarian) | TGI (UO-31 renal) | TGI (COLO 205 colon) | TGI (NCI-H522 lung) | TGI (HS 578T breast) | TGI (SK-MEL-28 melanoma) | TGI (PC-3 prostate) | TGI (SK-OV-3 ovarian)
1 | Cc1cn(Cc2ccccc2CCl)c(=O)[nH]c1=O | 30 µM | 20.7 µM | 31.3 µM | 33.2 µM | > 100 µM | 12.6 µM | 24.8 µM | 45.7 µM | 23.9 µM | 56.6 µM | 45.5 µM | 44.2 µM | > 100 µM
2 | CCOC(=O)CCC(NC(=O)c1ccc(N2CCN(c3c(C)nc(N)nc3N)CC2)cc1)C(=O)OCC (centres undefined) | > 100 µM | 19.6 µM | > 100 µM | > 100 µM | > 100 µM | > 100 µM | > 100 µM | > 100 µM | > 100 µM | > 100 µM | > 47.4 µM | > 100 µM | > 100 µM
3 | COc1ccc2c(c1)c1c(n2CCN2CCCCC2)-c2ccccc2CC1 | 35.1 µM | 37.3 µM | > 100 µM | 36.7 µM | 31.9 µM | 33.8 µM | 26.1 µM | 29.5 µM | 21.8 µM | 28.5 µM | 38.5 µM | 30.3 µM | 40.9 µM

From PubChem BioAssay (NCI)
